Usually pIC50 stands for −log10 of the IC50, conventionally taken in molar units. Broadly, the AUC(0-t) is the area under the concentration-time curve up to a stated or last time point. A low value points to low exposure. One may read the DC50 as the midpoint of the concentration-degradation curve. A lower DC50 goes with degradation at low concentration.

The record followed here is patent publication US20250333410A1, “COMPOUND FOR INHIBITING OR DEGRADING BCL6 AND USE THEREOF IN PHARMACEUTICS” (XIZANG HAISCO PHARMACEUTICAL CO., LTD., priority 2022, published 2025).

pIC50: −log10 of the molar value.

Data set [1] concerns the target hERG potassium ion channel (Homo sapiens (Human), UniProt Q12809). The data set is described as follows: Test for hERG potassium ion channel (manual patch-clamp, CHO cells). The format is cell-based. To be noted: CHO cells stably expressing hERG, whole cell patch-clamp; read-out: IC50 of inhibitory effects on hERG potassium channel current. From the text:
8. Test for hERG Potassium Ion Channel
Experimental platform: electrophysiological manual patch-clamp system
Cell line: Chinese hamster ovary (CHO) cell lines stably expressing hERG potassium ion channel
Experimental method: in CHO (Chinese Hamster Ovary) cells stably expressing hERG potassium channel, the whole cell patch-clamp technique was used to record hERG potassium channel current at room temperature. The glass microelectrode was made of a glass electrode blank (BF150-86-10, Sutter) by a puller. The tip resistance after filling the liquid in the electrode was about 2-5 MΩ. The glass microelectrode can be connected to the patch-clamp amplifier by inserting the glass microelectrode into an amplifier probe. The clamping voltage and data recording were controlled and recorded by the pClamp 10 software through a computer. The sampling frequency was 10 kHz, and the filtering frequency was 2 kHz. After the whole cell records were obtained, the cells were clamped at −80 mV, and the step voltage that induced the hERG potassium current (IhERG) was depolarized from −80 mV to +20 mV for 2 s, then repolarized to −50 mV, and returned to −80 mV after 1 s. This voltage stimulation was given every 10 s, and the administration process was started after the hERG potassium current was confirmed to be stable (at least 1 minute). The compound was administered for at least 1 minute at each test concentration, and at least 2 cells (n≥2) were tested at each concentration.
Data processing: data analysis processing was carried out by using pClamp 10, GraphPad Prism 5 and Excel software. The inhibition degree of hERG potassium current (peak value of hERG tail current induced at −50 mV) at different compound concentrations was calculated by the following formula: […]
where Inhibition % represents the percentage of inhibition of hERG potassium current by the compound, and I and Io represent the amplitude of hERG potassium current after and before the administration, respectively.
Compound IC50 was calculated using GraphPad Prism 5 software by fitting according to the following equation: […]
Among the equation, X represents the Log value of the tested concentration of the test sample, Y represents the inhibition percentage at the corresponding concentration, and Bottom and Top represent the minimum and maximum inhibition percentage, respectively.
In general terms: The hERG channel carries a current that helps repolarise heart muscle cells.

Data set [2] is described as follows: Pharmacokinetic test in rats. In kind it is in vivo, SD rats. To be noted: i.g. 5 mg/kg; for AUC(0-t): male, SD, rat, po, rats plasma. The procedure: 5. Pharmacokinetic Test in Rats
Experimental objective: in this experiment, a single dose of each test compound was administered to SD rats intravenously and intragastrically, and the concentrations of the test compounds in plasma of rats were measured to evaluate the pharmacokinetic characteristics of the test compounds in rats.
Experimental animal: male SD rats, 200-220 g, 6-8 weeks old, 6 rats/compound, purchased from Chengdu Ddossy Experimental Animals Co., Ltd.
Experimental method: on the day of the experiment, the SD rats were randomly grouped according to their body weights. The animals were fasted but with water available for 12 to 14 h one day before the administration, and were fed 4 h after the administration.
Sampling: Before and after the administration, 0.1 mL of blood was taken from the orbits under isoflurane anesthesia and placed in an EDTAK2 centrifuge tube. Centrifugation was carried out at 5000 rpm at 4° C. for 10 min, and the plasma was collected.
The plasma collection time points for IV&PO groups were 0, 5 min, 15 min, 30 min, 1 h, 2 h, 4 h, 7h, and 24 h.
Before analysis and detection, all samples were stored at −60° C. The samples were analyzed quantitatively by LC-MS/MS. PGP-3212J

In data set [3] the target is T1, Bcl6 (Homo sapiens (Human), UniProt P41182). The experiment in a line: Bcl-6 protein degradation experiment in Farage cells. In kind it is cell-based. To be noted: 24 hours. The procedure:
2. Bcl-6 Protein Degradation Experiment in Farage Cells
(§1) Farage cells purchased from ATCC were placed in an RPMI-1640 complete medium (containing 10% fetal bovine serum, 100 U/mL penicillin and 100 μg/mL streptomycin) and cultured at 37° C. and 5% CO2. The cells in the logarithmic growth phase were collected, and the cell suspension was adjusted to an appropriate density with the culture medium and added to a 6-well cell culture plate at a volume of 1 mL/well. The compounds to be tested were prepared to 2-fold the final concentration, 1 mL of the compounds at different concentrations were added to administration wells, a medium containing 0.2% DMSO was added to control wells, and the plate was incubated at 37° C. for 24 hours. The cells were collected into a 1.5 mL centrifuge tube, 25 μL of RIPA lysis buffer (containing 1× protease inhibitor cocktail) was added, and the cells were lysed on ice for 15 minutes and centrifuged at 12000 rpm/min at 4° C. for 10 minutes. The supernatant was collected and the protein content was determined using the BCA method. The protein sample to be tested was diluted to 0.8 mg/mL, Bcl6 was detected using a fully automated protein expression quantitative analyzer (ProteinSimple), and the internal reference protein was R-actin (both antibodies were from CST). The software (Compass for SW) of the fully automated protein expression quantitative analyzer was used to process the raw data and calculate the peak area and the Bcl6 expression rate relative to the control group. DC50 values were calculated using a four-parameter non-linear fitting model in Graphpad 8.3.0 software.

Data set [4] can be described thus: Pharmacokinetic test in mice. To be noted: i.g. 5 mg/kg; for AUC(0-t): male, ICR, mouse, po, mice plasma; for F: mice. The format is in vivo, ICR mice. The procedure:
3. Pharmacokinetic Test in Mice
1.1 Experimental animal: male ICR mice, 25-30 g, 6 mice/compound, purchased from Chengdu Ddossy Experimental Animals Co., Ltd.
1.2 Experimental design: on the day of the experiment, the ICR mice were randomly grouped according to their body weights. The animals were fasted but with water available for 12 to 14 h one day before the administration, and were fed 4 h after the administration.

Data set [5] has as its target T1, Bcl6. The experiment in a line: Bcl-6 protein degradation experiment in OCI-LY1 cells. In kind it is cell-based. As to conditions: 24 hours. The procedure: 4. Bcl-6 Protein Degradation Experiment in OCI-LY1 Cells
as §1, with “OCI-LY1” for “Farage”, “DSMZ” for “ATCC”, “IMDM” for “RPMI-1640”, “penicillin,” for “penicillin and”, “streptomycin and 50 µM mercaptoethanol)” for “streptomycin)”, “[…]” for “μL”

hERG potassium ion channel, sequence (Q12809 whole entry): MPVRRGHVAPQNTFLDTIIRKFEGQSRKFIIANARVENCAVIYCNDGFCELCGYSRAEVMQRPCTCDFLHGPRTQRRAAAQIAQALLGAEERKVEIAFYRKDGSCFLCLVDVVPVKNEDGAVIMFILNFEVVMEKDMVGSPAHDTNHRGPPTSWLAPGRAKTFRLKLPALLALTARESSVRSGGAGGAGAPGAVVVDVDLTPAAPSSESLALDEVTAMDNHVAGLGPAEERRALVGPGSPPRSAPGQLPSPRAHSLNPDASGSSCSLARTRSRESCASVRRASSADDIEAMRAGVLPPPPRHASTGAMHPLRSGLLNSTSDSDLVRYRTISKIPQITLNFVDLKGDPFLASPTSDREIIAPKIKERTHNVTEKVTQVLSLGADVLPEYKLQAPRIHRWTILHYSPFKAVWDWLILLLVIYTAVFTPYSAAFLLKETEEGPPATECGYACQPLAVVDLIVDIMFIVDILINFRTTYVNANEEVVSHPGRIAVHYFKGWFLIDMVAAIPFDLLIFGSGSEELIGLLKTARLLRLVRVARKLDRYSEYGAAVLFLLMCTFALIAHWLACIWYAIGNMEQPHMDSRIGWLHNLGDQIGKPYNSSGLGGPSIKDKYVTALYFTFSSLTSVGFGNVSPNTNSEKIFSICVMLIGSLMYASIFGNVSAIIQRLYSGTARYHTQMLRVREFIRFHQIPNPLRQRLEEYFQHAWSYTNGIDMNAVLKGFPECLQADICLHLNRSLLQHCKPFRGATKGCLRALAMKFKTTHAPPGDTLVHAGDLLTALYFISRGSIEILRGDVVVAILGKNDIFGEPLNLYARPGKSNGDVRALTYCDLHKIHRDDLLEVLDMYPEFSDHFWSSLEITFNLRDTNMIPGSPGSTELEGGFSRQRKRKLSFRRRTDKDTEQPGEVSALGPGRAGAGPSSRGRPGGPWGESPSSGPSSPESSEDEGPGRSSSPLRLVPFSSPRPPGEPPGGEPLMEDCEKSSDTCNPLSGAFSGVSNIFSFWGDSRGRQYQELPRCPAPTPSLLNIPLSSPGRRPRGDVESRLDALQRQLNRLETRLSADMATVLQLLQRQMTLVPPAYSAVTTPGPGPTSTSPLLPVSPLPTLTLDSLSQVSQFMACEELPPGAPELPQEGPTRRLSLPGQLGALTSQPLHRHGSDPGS

Consider `[2H]C([2H])([2H])n1c(=O)c(OCC(=O)NC)cc2cc(Nc3nc(N4CCC(O[C@H]5C[C@H](N6CCN7c8cc(F)c(C9CCC(=O)NC9=O)cc8CC[C@H]7C6)C5)CC4)ncc3Cl)ccc21` (some centres unmarked) [Trifluoroacetate of compound 73], for which the pIC50 in data set [1] is under 4.40. In data set [2], this compound yielded an AUC(0-t) of over 1000 ng·h/mL. Also, the DC50 on Bcl6 [3] was under 10 nM.
In the case of `[2H]C([2H])([2H])NC(=O)COc1cc2cc(Nc3nc(N4CCC(CN5CCN6c7cc(F)c(C8CCC(=O)NC8=O)cc7CC[C@H]6C5)CC4)ncc3Cl)ccc2n(C)c1=O` (some centres unmarked) [Trifluoroacetate of compound 67], the pIC50 in data set [1] was under 4.40. Moreover, the DC50 on Bcl6 [3] is under 10 nM. In data set [4], this compound came in with an exposure AUC(0-t) of over 1000 ng·h/mL and an F of over 50%.
With `[2H]C([2H])([2H])NC(=O)COc1cc2cc(Nc3nc(N4CCC(O[C@H]5C[C@H](N6CCN7c8cc(F)c(C9CCC(=O)NC9=O)cc8CC[C@H]7C6)C5)CC4)ncc3Cl)ccc2n(C([2H])([2H])[2H])c1=O` (some centres unmarked) [Trifluoroacetate of compound 71], the pIC50 in data set [1] is under 4.40. The same compound yielded an exposure AUC(0-t) in data set [2] of over 1000 ng·h/mL. On Bcl6 [3], this compound showed a DC50 of under 10 nM.
Compound `CCn1c(=O)c(OCC(=O)NC)cc2cc(Nc3nc(N4CCC(O[C@H]5C[C@H](N6CCN7c8cc(F)c(C9CCC(=O)NC9=O)cc8CC[C@@H]7C6)C5)CC4)ncc3Cl)ccc21` (some centres unmarked) [Trifluoroacetate of compound 74] yielded an AUC(0-t) in data set [2] of over 1000 ng·h/mL. The compound further showed a DC50 on Bcl6 [3] of under 10 nM.
With `[2H]C([2H])([2H])NC(=O)COc1cc2cc(Nc3nc(N4CCC(O[C@H]5C[C@H](N6CCN7c8cc(F)c(C9CCC(=O)NC9=O)cc8CC[C@H]7C6)C5)CC4)ncc3Cl)ccc2n(C)c1=O` (some centres unmarked) [Trifluoroacetate of compound 72], in data set [1], the pIC50 was under 4.40. The AUC(0-t) in data set [2] is over 1000 ng·h/mL. The DC50 at Bcl6 [3] is under 10 nM.
Turning to `CNC(=O)COc1cc2cc(Nc3nc(N4CCC(O[C@H]5C[C@H](N6CCn7c(cc8cc(C9CCC(=O)NC9=O)c(F)cc87)C6)C5)CC4)ncc3Cl)ccc2n(C(C)C)c1=O` (some centres unmarked) [Trifluoroacetate of compound 78], the pIC50 in data set [1] was under 4.40. For the same compound, in data set [2], the AUC(0-t) is over 1000 ng·h/mL. The DC50 at Bcl6 [3] was under 10 nM.
In the case of `CNC(=O)COc1cc2cc(Nc3nc(N4CCN(CC5CCN(c6ccc(C7CCC(=O)NC7=O)cc6)CC5)CC4)ncc3Cl)ccc2n(C)c1=O` (centres unmarked) [Compound 8], in data set [1], the pIC50 is under 4.40. Moreover, the AUC(0-t) in data set [2] and in data set [4] was over 1000 ng·h/mL throughout. In addition, the F in data set [2] (rats) and in data set [4] was over 50% in each case. Moreover, the results for the DC50 at Bcl6 [5], at Bcl6 [5] (listed as compound 8) and on Bcl6 [3] were under 100 nM, under 5 nM and under 10 nM, respectively.
